ChEMBL document CHEMBL4602617, “Discovery and optimization of heteroaryl piperazines as potent and selective PI3Kδ inhibitors” (Bioorg Med Chem Lett, 2020)

Columns and labels:
[1] = target: Muscarinic acetylcholine receptor M2 (Homo sapiens) (UniProt P08172); assay: Displacement of [3H]N-Methylscopolamine from full length human recombinant Muscarinic M2 receptor expressed in CHOK1 cells at 10 uM measured after 120 mins by radiometric scintillation analysis relative to control; assay type: cell-based; conditions: CHO-K1
[2] = target: Alpha-1D adrenergic receptor (Homo sapiens) (UniProt P25100); assay: Displacement of [3H]prazosin from recombinant full length human alpha1d adrenergic receptor expressed in HEK293 cell membranes at 10 uM measured after 60 mins by scintillation counting method relative to control
Sequence of Alpha-1D adrenergic receptor (Homo sapiens) (P25100 whole entry, canonical isoform): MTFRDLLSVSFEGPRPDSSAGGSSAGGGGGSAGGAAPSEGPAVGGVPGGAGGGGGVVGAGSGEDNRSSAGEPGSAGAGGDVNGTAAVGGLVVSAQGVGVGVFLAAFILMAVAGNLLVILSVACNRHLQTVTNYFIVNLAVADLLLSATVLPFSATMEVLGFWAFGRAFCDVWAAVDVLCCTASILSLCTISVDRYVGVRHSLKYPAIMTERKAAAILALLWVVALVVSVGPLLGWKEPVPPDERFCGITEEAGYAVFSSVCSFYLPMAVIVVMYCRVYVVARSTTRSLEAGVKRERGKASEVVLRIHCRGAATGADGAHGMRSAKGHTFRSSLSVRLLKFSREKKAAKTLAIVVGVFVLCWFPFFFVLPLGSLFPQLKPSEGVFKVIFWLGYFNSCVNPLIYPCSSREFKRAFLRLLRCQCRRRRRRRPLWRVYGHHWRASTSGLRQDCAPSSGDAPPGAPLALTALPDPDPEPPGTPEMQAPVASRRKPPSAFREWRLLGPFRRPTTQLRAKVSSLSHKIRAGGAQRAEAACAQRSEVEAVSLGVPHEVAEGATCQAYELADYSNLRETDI

[3] = target: T1, Phosphatidylinositol 4,5-bisphosphate 3-kinase catalytic subunit delta isoform (Homo sapiens, UniProt O00329); assay: Inhibition of PI3K delta (unknown origin) by Adapta assay
T1 sequence (O00329 whole entry): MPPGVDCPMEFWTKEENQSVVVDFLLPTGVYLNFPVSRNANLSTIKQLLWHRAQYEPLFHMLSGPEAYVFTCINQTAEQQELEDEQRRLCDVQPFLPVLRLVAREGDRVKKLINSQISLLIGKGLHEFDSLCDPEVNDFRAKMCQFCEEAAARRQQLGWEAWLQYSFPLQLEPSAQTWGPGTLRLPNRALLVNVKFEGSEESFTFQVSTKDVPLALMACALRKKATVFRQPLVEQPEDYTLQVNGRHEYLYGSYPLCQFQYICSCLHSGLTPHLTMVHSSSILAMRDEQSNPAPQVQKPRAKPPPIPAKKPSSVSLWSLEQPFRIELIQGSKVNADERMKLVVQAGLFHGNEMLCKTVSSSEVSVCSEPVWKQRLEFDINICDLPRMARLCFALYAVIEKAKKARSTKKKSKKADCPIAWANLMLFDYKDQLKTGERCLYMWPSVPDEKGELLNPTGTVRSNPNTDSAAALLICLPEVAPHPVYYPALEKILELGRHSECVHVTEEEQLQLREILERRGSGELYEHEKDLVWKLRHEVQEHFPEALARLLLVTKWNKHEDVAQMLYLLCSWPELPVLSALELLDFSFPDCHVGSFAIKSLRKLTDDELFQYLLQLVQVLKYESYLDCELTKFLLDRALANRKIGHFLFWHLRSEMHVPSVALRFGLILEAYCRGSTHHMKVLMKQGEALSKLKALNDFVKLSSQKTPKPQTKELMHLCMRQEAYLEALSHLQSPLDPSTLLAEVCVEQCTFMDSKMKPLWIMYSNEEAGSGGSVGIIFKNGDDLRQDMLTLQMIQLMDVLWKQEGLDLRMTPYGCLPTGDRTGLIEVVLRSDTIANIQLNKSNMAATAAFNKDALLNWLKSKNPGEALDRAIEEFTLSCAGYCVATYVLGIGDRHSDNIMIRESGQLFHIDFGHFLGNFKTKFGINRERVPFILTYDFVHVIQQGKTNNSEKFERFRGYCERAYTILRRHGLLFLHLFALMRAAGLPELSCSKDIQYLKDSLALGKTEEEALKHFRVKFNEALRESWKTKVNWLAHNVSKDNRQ

[4] = target: Ribosomal protein S6 kinase alpha-3 (Homo sapiens, UniProt P51812); assay: Inhibition of recombinant full length human His-tagged RSK2 expressed in baculovirus expression system using serine/threonine-6 peptide as substrate incubated for 60 mins in presence of ATP by Z'-LYTE assay
[5] = target: Tyrosine-protein kinase ITK/TSK (Homo sapiens, UniProt Q08881); assay: Inhibition of recombinant full length human GST-tagged ITK expressed in baculovirus expression system using tyrosine-1 peptide as substrate incubated for 60 mins in presence of ATP by Z'-LYTE assay
[6] = target: Homeodomain-interacting protein kinase 1 (Homo sapiens, UniProt Q86Z02); assay: Inhibition of recombinant human GST-tagged HIPK1 catalytic domain expressed in baculovirus expression system using serine/threonine-9 peptide as substrate incubated for 60 mins in presence of ATP by Z'-LYTE assay
Sequence of Homeodomain-interacting protein kinase 1 (Q86Z02 whole entry, the tested form may be a part): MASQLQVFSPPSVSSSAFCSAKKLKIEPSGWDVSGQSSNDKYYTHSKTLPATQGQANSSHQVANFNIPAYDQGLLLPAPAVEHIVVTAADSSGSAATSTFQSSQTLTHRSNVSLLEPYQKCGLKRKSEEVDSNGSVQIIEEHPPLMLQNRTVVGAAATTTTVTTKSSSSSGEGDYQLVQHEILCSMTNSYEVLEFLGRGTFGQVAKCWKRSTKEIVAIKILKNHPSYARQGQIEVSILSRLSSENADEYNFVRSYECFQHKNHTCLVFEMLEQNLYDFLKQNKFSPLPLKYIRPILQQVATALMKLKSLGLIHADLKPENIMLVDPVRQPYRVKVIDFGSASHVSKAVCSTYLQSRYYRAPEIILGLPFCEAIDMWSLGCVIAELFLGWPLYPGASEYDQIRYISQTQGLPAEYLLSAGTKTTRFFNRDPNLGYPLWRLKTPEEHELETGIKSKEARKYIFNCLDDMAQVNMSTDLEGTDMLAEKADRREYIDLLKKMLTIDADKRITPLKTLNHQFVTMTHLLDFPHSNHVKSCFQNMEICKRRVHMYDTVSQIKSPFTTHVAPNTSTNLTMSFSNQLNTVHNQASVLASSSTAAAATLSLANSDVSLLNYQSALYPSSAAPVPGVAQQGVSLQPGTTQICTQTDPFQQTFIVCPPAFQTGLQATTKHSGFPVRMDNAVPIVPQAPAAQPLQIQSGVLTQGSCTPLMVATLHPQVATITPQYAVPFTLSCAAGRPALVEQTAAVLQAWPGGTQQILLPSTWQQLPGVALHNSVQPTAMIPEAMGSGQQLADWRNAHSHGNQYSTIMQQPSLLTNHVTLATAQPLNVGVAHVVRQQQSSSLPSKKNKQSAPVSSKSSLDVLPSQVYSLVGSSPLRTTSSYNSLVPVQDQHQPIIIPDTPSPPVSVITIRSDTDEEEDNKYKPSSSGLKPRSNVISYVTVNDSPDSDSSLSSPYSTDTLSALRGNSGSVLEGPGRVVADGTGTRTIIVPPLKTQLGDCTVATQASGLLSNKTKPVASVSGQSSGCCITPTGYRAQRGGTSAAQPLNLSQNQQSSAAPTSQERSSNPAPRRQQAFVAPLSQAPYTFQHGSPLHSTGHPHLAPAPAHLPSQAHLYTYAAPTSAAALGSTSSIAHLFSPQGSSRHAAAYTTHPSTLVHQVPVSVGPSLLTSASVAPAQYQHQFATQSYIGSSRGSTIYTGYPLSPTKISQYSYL

[7] = target: Epidermal growth factor receptor (Homo sapiens, UniProt P00533); assay: Inhibition of human EGFR (668 to 1210 residues) expressed in insect cells at 10 uM using Poly(Glu:Tyr) as substrate after 30 mins by radiometric scintillation analysis relative to control
Sequence of Epidermal growth factor receptor (P00533 whole entry, the tested form may be a part): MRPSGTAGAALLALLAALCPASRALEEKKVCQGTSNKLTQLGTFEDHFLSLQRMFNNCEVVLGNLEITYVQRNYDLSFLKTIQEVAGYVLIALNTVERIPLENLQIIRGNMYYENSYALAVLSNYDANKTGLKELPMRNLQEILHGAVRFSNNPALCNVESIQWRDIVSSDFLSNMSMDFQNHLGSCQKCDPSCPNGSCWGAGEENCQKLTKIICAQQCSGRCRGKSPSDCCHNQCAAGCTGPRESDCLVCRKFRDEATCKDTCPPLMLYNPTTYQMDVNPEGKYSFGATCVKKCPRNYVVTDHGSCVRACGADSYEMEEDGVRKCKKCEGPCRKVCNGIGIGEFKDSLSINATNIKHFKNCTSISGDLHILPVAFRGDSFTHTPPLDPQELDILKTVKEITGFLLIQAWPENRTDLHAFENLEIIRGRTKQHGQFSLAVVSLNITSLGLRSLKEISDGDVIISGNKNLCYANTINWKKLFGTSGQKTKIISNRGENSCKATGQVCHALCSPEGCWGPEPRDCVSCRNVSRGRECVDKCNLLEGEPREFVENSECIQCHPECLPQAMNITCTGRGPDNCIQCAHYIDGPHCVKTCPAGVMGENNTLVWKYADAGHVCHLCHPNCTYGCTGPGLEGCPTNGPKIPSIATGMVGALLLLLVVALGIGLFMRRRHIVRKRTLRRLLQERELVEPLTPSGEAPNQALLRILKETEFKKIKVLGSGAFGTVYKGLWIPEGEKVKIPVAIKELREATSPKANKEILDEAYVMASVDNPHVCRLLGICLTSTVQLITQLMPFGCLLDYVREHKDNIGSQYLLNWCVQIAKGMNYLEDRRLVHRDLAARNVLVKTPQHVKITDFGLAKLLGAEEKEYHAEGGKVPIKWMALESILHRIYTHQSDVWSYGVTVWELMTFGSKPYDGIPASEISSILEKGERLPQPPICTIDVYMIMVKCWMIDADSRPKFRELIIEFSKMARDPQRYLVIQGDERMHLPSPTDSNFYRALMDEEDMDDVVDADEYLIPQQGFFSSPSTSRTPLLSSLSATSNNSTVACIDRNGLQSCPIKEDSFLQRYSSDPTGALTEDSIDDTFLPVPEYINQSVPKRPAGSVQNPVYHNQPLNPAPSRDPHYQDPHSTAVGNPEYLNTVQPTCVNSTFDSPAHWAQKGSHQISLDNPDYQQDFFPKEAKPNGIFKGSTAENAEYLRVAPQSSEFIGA

[8] = target: Sodium-dependent noradrenaline transporter (Homo sapiens) (UniProt P23975); assay: Displacement of [125I]RTI-55 from full length recombinant human NET expressed in MDCK cells at 10 uM after 3 hrs by radiometric scintillation analysis relative to control; assay type: cell-based
[9] = target: Tyrosine-protein kinase receptor TYRO3 (Homo sapiens, UniProt Q06418); assay: Inhibition of recombinant human GST-tagged RSE catalytic domain (451 to 890 residues) expressed in baculovirus expression system using tyrosine-2 peptide as substrate incubated for 60 mins in presence of ATP by Z'-LYTE assay
Sequence of Tyrosine-protein kinase receptor TYRO3 (Q06418 whole entry, the tested form may be a part): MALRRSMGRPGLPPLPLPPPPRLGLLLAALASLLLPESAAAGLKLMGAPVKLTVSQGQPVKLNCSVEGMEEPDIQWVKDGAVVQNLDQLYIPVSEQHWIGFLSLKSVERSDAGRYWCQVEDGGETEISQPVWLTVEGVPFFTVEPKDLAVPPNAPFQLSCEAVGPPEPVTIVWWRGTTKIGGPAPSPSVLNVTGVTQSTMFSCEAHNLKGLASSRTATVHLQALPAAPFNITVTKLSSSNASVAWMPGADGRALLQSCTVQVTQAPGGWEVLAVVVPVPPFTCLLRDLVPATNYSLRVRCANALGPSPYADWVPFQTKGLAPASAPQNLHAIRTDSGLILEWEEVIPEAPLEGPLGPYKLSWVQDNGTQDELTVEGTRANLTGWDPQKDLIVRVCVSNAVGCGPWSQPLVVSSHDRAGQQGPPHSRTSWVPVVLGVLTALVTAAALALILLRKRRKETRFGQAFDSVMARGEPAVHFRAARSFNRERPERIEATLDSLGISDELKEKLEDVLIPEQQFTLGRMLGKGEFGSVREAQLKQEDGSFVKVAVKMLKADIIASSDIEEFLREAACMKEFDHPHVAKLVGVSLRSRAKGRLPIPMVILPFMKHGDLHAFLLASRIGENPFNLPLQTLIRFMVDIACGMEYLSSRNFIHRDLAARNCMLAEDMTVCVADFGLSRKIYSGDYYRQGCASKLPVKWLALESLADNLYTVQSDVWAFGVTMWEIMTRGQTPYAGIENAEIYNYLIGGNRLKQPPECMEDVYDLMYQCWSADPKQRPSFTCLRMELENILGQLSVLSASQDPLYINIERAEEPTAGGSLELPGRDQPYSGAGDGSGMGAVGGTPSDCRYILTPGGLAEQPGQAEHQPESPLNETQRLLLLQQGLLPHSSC

[10] = Half life in dog at 0.5 mg/kg, iv 1 mg/kg, po; assay type: ADME, organism-based, Canis lupus familiaris; conditions: in vivo
[11] = target: Phosphatidylinositol 3-kinase catalytic subunit type 3 (Homo sapiens, UniProt Q8NEB9); assay: Inhibition of recombinant full length human GST-tagged PIK3C3 expressed in baculovirus expression system using PI lipid as substrate incubated for 60 mins in presence of ATP by Adapta assay
[12] = target: Phosphatidylinositol 4-phosphate 3-kinase C2 domain-containing subunit beta (Homo sapiens, UniProt O00750); assay: Inhibition of recombinant GST-tagged human PIK3C2B catalytic domain expressed in baculovirus expression system using PI as substrate after 1 hr in presence of ATP by Adapta assay
[13] = target: Tyrosine-protein kinase HCK (Homo sapiens, UniProt P08631); assay: Inhibition of recombinant full length N-terminal GST-tagged human HCK expressed in baculovirus expression system using Tyr 02 as substrate after 1 hr in presence of ATP by Z'-LYTE assay
[14] = target: Tyrosine-protein kinase Mer (Homo sapiens, UniProt Q12866); assay: Inhibition of recombinant human GST-tagged MER (578 to 872 residues) expressed in baculovirus expression system using tyrosine-2 peptide as substrate incubated for 60 mins in presence of ATP by Z'-LYTE assay
Sequence of Tyrosine-protein kinase Mer (Q12866 whole entry, the tested form may be a part): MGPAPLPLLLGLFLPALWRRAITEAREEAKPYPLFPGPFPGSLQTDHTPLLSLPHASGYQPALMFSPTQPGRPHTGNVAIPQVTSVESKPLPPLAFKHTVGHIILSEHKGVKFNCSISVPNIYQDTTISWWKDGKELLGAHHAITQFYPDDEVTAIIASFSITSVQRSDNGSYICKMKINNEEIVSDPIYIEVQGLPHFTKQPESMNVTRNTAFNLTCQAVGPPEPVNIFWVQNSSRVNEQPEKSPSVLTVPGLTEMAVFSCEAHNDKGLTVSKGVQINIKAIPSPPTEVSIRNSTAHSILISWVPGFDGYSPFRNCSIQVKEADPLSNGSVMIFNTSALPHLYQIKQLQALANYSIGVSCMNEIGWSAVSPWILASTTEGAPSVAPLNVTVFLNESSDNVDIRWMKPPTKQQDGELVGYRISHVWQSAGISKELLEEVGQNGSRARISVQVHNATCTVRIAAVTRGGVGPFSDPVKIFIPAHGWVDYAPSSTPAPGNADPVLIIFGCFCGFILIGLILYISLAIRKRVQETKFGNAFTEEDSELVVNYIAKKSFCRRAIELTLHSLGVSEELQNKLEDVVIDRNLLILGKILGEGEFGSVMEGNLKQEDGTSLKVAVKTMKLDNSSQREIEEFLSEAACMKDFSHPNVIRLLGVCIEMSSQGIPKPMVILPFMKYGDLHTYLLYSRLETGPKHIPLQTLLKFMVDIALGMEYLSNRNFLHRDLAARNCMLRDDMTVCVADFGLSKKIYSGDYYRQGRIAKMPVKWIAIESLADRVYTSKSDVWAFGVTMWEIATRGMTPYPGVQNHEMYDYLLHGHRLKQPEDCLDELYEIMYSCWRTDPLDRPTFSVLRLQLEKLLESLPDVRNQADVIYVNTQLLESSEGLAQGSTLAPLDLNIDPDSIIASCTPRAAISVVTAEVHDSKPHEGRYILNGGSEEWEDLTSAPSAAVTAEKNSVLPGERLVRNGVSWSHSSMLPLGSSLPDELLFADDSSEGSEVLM

[15] = target: Tyrosine-protein kinase Fgr (Homo sapiens, UniProt P09769); assay: Inhibition of recombinant full length human C-terminal His-tagged FGR expressed in baculovirus expression system using tyrosine-2 peptide as substrate incubated for 60 mins in presence of ATP by Z'-LYTE assay
Activin receptor type-1B = Activin receptor type-1B (Homo sapiens, UniProt P36896); assay: Inhibition of recombinant GST-tagged human ALK4 (150 to 505 residues) expressed in baculovirus expression system using Ser/Thr-16 peptide as substrate incubated for 60 mins in presence of ATP by Z'-LYTE assay
[16] = target: Histamine H3 receptor (Homo sapiens) (UniProt Q9Y5N1); assay: Displacement of [3H]N-alpha-Methylhistamine from full length human recombinant histamine H3 receptor expressed in CHO-K1 cells at 10 uM measured after 120 mins by radiometric scintillation analysis relative to control; assay type: cell-based
[17] = target: Fibroblast growth factor receptor 2 (Homo sapiens, UniProt P21802); assay: Inhibition of recombinant His-tagged human FGFR2 (403 to 822 residues) cytoplasmic domain expressed in baculovirus expression system using Tyr 04 peptide as substrate after 1 hr in presence of ATP by Z'-LYTE assay

## C[C@@H]1C[C@H]1C(=O)N1CCN(c2cnc(C#N)c(-c3cnn(C)c3)n2)C[C@H]1C
[1]
  inhibition: 1%
[2]
  inhibition: 5%
[3]
  IC50: < 0.01 µM
[4]
  IC50: 29.1 µM
[5]
  IC50: > 100 µM
[6]
  IC50: > 100 µM
[7]
  inhibition: -9%
[8]
  inhibition: 3%
[9]
  IC50: > 100 µM
[10]
  half-life: 2.9 h
[11]
  IC50: > 100 µM
[12]
  IC50: 40.5 µM
[13]
  IC50: 37.6 µM
[14]
  IC50: > 100 µM
[15]
  IC50: 25.4 µM
Activin receptor type-1B
  IC50: > 100 µM
[16]
  inhibition: -1%
[17]
  IC50: > 100 µM
